The structures appear in SMILES notation. Where a SMILES comes first, the peptide text is derived from it.

This data set is described as follows: Water solubility of peptides when preparing stock solutions. Type of data set: physicochemical. The note with it: stock solution in sterile distilled water or 100% DMSO; read-out: solubility of peptide (water soluble or water insoluble, dissolved in DMSO). The procedure:
For challenge, peptides were administered as follows: • Individual peptides (soluble). Individual water soluble peptides were dissolved as 10, 5 or 2.5 mg/ml stock solutions in sterile distilled water. Before use, each peptide was diluted in water to 2 mg/ml and 10 μl of this 2 mg/ml mix was added to 990 μl of media. Then 100 μl of this peptide/media mix was added to 100 μl of media containing 350,000 PBMC in an ELISPOT anti-IL-4 coated cell culture plate well for a final peptide concentration of 10 μg/ml. Identically diluted media only was added to the cells and used for the no peptide media control wells (media only). • Individual peptides (DMSO). Individual water insoluble peptides were dissolved in 100% DMSO to a stock concentration of 50 mg/ml. Before use each peptide was diluted in water to 2 mg/ml and then 10 μl of the 2 mg/ml mix was added to 990 μl of cell-culture media. Then 100 μl of this peptide/media mix was added to 100 μl of media containing 350,000 PBMC in an ELISPOT anti-IL-4 coated cell culture plate well for a final peptide concentration of 10 μg/ml. Identically diluted media only was added to the cells and used for the no peptide media control wells (media only). • A combination preparation containing Alt a 1 soluble peptides (33.2, 34.3, 35.4, 35.5, 37.3.1, 37.4.1, L6-5.01, L10-1.01, L10-2.01, L10-3), called Alt a 1 Sol. Each peptide was diluted from water stock to 2 mg/ml in sterile distilled water. Then 10 μl of each peptide required for the combined preparation was mixed and brought up to 1 ml in media. Then 100 μl of this peptide/media mix was added to 100 μl of media containing 350,000 PBMC in an ELISPOT anti-IL-4 coated cell culture plate well for a final concentration of each peptide of 10 μg/ml. Identically diluted media only was used for the no peptide control wells (media only). • A combination preparation containing Alt a 1 DMSO peptides (32.2.1, 38.2.1, 35.2, 35.3, L6-2, L6-3, L6-4, 38.3, 37.2), called Alt a 1 DMSO. Each peptide was diluted from DMSO stock to 2 mg/ml in sterile distilled water. Then 10 μl of each peptide required for the combined preparation was mixed and brought up to 1 ml in media. Then 100 μl of this peptide/media mix is added to 100 μl of media containing 350,000 PBMC in an ELISPOT anti-IL-4 coated cell culture plate well for a final concentration of each peptide of 10 μg/ml. Identically diluted media only was used for the no peptide control wells (media only). • A combination preparation containing non-Alt a 1 soluble peptides (40.2, 41.2, 43.2, 44.2, 46.2, 47.2.1, 56.2, 57.2.1, 60.2, 62.2.1, 67.2, 71.3), called Alt a Other Sol. Each peptide was diluted from water stock to 2 mg/ml in sterile distilled water. Then 10 μl of each peptide required for the combined preparation was mixed and brought up to 1 ml in media, Then 100 μl of this peptide/media mix was added to 100 μl of media containing 350,000 PBMC in an ELISPOT anti-IL-4 coated cell culture plate well for a final concentration of each peptide at 10 μg/ml. Identically diluted media only was used for the no peptide control wells (media only). • A combination preparation containing non-Alt a 1 DMSO peptides (39.2, 42.2, 45.2, 48.2.1, 50.2, 51.2.1, 61.2.1, 66.3.1, 68.2.1, 70.2, 71.2, 72.2), called Alt a Other DMSO. Each peptide was diluted from DMSO stock to 2 mg/ml in sterile distilled water. Then 10 ul of each peptide required for the combined preparation was mixed and brought up to 1 ml in media, Then 100 μl of this peptide/media mix was added to 100 μl of media containing 350,000 PBMC in an ELISPOT anti-IL-4 coated cell culture plate well for a final concentration of each peptide at 10 μg/ml. Identically diluted media only was used for the no peptide control wells (media only).
As to `CC(C)C[C@H](NC(=O)[C@@H]1CCCN1C(=O)[C@H](C)NC(=O)[C@H](C)NC(=O)[C@H](C)NC(=O)[C@H](C)NC(=O)[C@H](CC(C)C)NC(=O)CNC(=O)[C@H](C)NC(=O)[C@H](C)NC(=O)[C@H](C)NC(=O)[C@H](Cc1ccccc1)NC(=O)[C@H](CC(C)C)NC(=O)[C@H](CO)NC(=O)[C@H](C)N)C(=O)O` [Peptide L6-3, ASLFAAAGLAAAAPL] (H-ASLFAAAGLAAAAPL-OH), the solubility was < 2500 µg/mL.
Regarding `CC[C@H](C)[C@H](NC(=O)[C@H](Cc1ccccc1)NC(=O)[C@H](Cc1ccc(O)cc1)NC(=O)CNC(=O)[C@H](CCCCN)NC(=O)[C@@H](N)CC(=O)O)C(=O)N[C@@H](CCC(=O)O)C(=O)N1CCC[C@H]1C(=O)N[C@H](C(=O)N[C@H](C(=O)N[C@@H](Cc1ccccc1)C(=O)N[C@@H](CO)C(=O)N[C@@H](CC(N)=O)C(=O)N[C@H](C(=O)N[C@H](C(=O)O)[C@@H](C)O)C(C)C)[C@@H](C)CC)[C@@H](C)O` [Peptide 70.2, DKGYFIEPTIFSNVT] (H-DKGYFIEPTIFSNVT-OH; N-terminus and C-terminus assumed), the solubility is < 2500 µg/mL.
Under `CC[C@H](C)[C@H](NC(=O)[C@H](CC(N)=O)NC(=O)[C@H](Cc1ccccc1)NC(=O)CNC(=O)[C@H](CC(C)C)NC(=O)[C@H](CO)NC(=O)[C@H](CC(N)=O)NC(=O)[C@H](Cc1ccc(O)cc1)NC(=O)[C@H](Cc1ccc(O)cc1)NC(=O)[C@@H](NC(=O)CNC(=O)[C@@H](N)CCC(=O)O)[C@@H](C)O)C(=O)N[C@@H](CCCCN)C(=O)N[C@@H](C)C(=O)N[C@H](C(=O)O)[C@@H](C)O` [Peptide 35.2, EGTYYNSLGFNIKAT] (H-EGTYYNSLGFNIKAT-OH) stands < 2500 µg/mL; under `CC(C)C[C@H](NC(=O)[C@H](C)NC(=O)[C@@H](NC(=O)[C@H](CCC(N)=O)NC(=O)[C@H](CC(N)=O)NC(=O)[C@@H](N)CCCCN)C(C)C)C(=O)N[C@@H](CC(N)=O)C(=O)N1CCC[C@H]1C(=O)N[C@H](C(=O)N[C@@H](CC(N)=O)C(=O)N[C@H](C(=O)N[C@H](C(=O)N[C@@H](Cc1ccccc1)C(=O)N[C@@H](CC(=O)O)C(=O)N[C@@H](C)C(=O)O)C(C)C)[C@@H](C)O)C(C)C` [Peptide 51.2.1, KNQVALNPVNTVFDA] (H-KNQVALNPVNTVFDA-OH), < 2500 µg/mL.
The same measure for `CC[C@H](C)[C@H](NC(=O)[C@H](CC(=O)O)NC(=O)[C@H](CC(=O)O)NC(=O)[C@H](CO)NC(=O)[C@@H](NC(=O)[C@H](CCCCN)NC(=O)[C@H](CCC(N)=O)NC(=O)[C@@H](N)CCCCN)C(C)C)C(=O)N[C@H](C(=O)N[C@@H](Cc1ccc(O)cc1)C(=O)N[C@H](C(=O)N[C@@H](C)C(=O)N[C@H](C(=O)N[C@@H](C)C(=O)N[C@H](C(=O)O)[C@@H](C)O)[C@@H](C)O)C(C)C)[C@@H](C)O` [Peptide L10-3, KQKVSDDITYVATAT] (H-KQKVSDDITYVATAT-OH): > 2500 µg/mL.
Under `CC[C@H](C)[C@H](NC(=O)CNC(=O)[C@@H](N)C(C)C)C(=O)N[C@@H](Cc1ccccc1)C(=O)N[C@@H](CCCNC(=N)N)C(=O)N[C@@H](CC(=O)O)C(=O)N[C@@H](CC(=O)O)C(=O)N[C@@H](CCCNC(=N)N)C(=O)N[C@H](C(=O)N[C@@H](CCC(=O)O)C(=O)N[C@H](C(=O)N[C@H](C(=O)N[C@@H](C)C(=O)N[C@@H](CC(N)=O)C(=O)N[C@@H](CC(=O)O)C(=O)O)[C@@H](C)CC)[C@@H](C)CC)[C@@H](C)CC` [Peptide 50.2, VGIFRDDRIEIIAND] (H-VGIFRDDRIEIIAND-OH; N-terminus and C-terminus assumed) stands < 2500 µg/mL.
As for `CC(C)C[C@H](NC(=O)[C@H](CCCNC(=N)N)NC(=O)[C@H](CC(N)=O)NC(=O)[C@@H](N)CC(=O)O)C(=O)N[C@H](C(=O)N[C@@H](CC(N)=O)C(=O)N[C@@H](Cc1c[nH]cn1)C(=O)N[C@@H](Cc1ccccc1)C(=O)N[C@H](C(=O)N[C@@H](CC(N)=O)C(=O)N[C@@H](CCC(=O)O)C(=O)N[C@@H](Cc1ccccc1)C(=O)N[C@@H](CCCCN)C(=O)N[C@@H](CCCNC(=N)N)C(=O)N[C@@H](CCCCN)C(=O)O)[C@@H](C)O)C(C)C` [Peptide 40.2, DNRLVNHFTNEFKRK] (H-DNRLVNHFTNEFKRK-OH; N-terminus and C-terminus assumed), the solubility was > 2500 µg/mL.

One may read the solubility as the concentration that dissolves in the medium under given conditions.

The values above are taken from patent US20130259884A1, “PEPTIDES” ([…] SL, priority 2010, published 2013).
